Measurements: PubChem BioAssay AID1963421 (Molecular Pharmacology Branch, DTP, NCI, 2024)
Where “and” joins values, the source holds several entries; their conditions need not be identical. Identical values can stand only once.

System: 519858-162-T-J1-PDC complex spheroid growth, % test/control
Experiment: Anticancer human tumor 519858-162-T-J1-PDC patient-derived colon adenocarcinoma cell line growth inhibition [Asc]
Settings: for viability, T/C: stronger effect = lower value
Outline: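 Spheroid model: tumor line + HUVEC + hMSC. Single agents and combinations; top conc. at/near clinical Cmax (10 microM if undetermined), half-log dilutions. DMSO stocks at 800-fold test concentration.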

[1] = curve of first compound, second compound 0.00316 µM
[2] = curve of first compound, second compound 0.01 µM
[3] = curve of first compound, second compound 0.0316 µM
[4] = curve of first compound, second compound 0.1 µM
[5] = curve of first compound, second compound 0.316 µM
[6] = curve of first compound, second compound 1 µM
[7] = second compound 0.00316 µM, first compound 0.0316 µM
[8] = second compound 0.00316 µM, first compound 0.1 µM
[9] = second compound 0.00316 µM, first compound 0.316 µM
[10] = second compound 0.00316 µM, first compound 1 µM
[11] = second compound 0.01 µM, first compound 0.0316 µM
[12] = second compound 0.01 µM, first compound 0.1 µM
[13] = second compound 0.01 µM, first compound 0.316 µM
[14] = second compound 0.01 µM, first compound 1 µM
[15] = second compound 0.0316 µM, first compound 0.0316 µM
[16] = second compound 0.0316 µM, first compound 0.1 µM
[17] = second compound 0.0316 µM, first compound 0.316 µM
[18] = second compound 0.0316 µM, first compound 1 µM
[19] = second compound 0.1 µM, first compound 0.0316 µM
[20] = second compound 0.1 µM, first compound 0.1 µM
[21] = second compound 0.1 µM, first compound 0.316 µM
[22] = second compound 0.1 µM, first compound 1 µM
[23] = second compound 0.316 µM, first compound 0.0316 µM
[24] = second compound 0.316 µM, first compound 0.1 µM
[25] = second compound 0.316 µM, first compound 0.316 µM
[26] = second compound 0.316 µM, first compound 1 µM
[27] = second compound 1 µM, first compound 0.0316 µM
[28] = second compound 1 µM, first compound 0.1 µM
[29] = second compound 1 µM, first compound 0.316 µM
[30] = second compound 1 µM, first compound 1 µM
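Also: seven day drug exposure begun three days after spheroid seeding.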
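For viability, T/C in this document: 100% = DMSO vehicle wells and lower values mean less viable spheroid.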

NC1CCC(NC2CC2c2ccccc2)CC1 (centres undefined) + CCN1C(C(=O)NC23CCC(C(=O)O)(CC2)CC3)C(c2cccc(Cl)c2F)C2(C(=O)Nc3cc(Cl)ccc32)C12CCCCC2
IC50 (curve of first compound, second compound 0.00949 µM): > 100 nM | IC50 (curve of first compound, second compound 0.03 µM): > 100 nM | IC50 (curve of first compound, second compound 0.0949 µM): > 100 nM | IC50 (curve of first compound, second compound 0.3 µM): > 100 nM | IC50 (curve of first compound, second compound 0.949 µM): > 100 nM | IC50 (curve of first compound, second compound 3 µM): > 100 nM | viability, T/C (second compound 0.00949 µM, first compound 0.000316 µM): 101% | viability, T/C (second compound 0.00949 µM, first compound 0.001 µM): 129% | viability, T/C (second compound 0.00949 µM, first compound 0.00316 µM): 130% | viability, T/C (second compound 0.00949 µM, first compound 0.01 µM): 112% | viability, T/C (second compound 0.00949 µM, first compound 0.0316 µM): 107% | viability, T/C (second compound 0.00949 µM, first compound 0.1 µM): 92.4% | viability, T/C (second compound 0.03 µM, first compound 0.000316 µM): 146% | viability, T/C (second compound 0.03 µM, first compound 0.001 µM): 149% | viability, T/C (second compound 0.03 µM, first compound 0.00316 µM): 101% | viability, T/C (second compound 0.03 µM, first compound 0.01 µM): 84.1% | viability, T/C (second compound 0.03 µM, first compound 0.0316 µM): 70.2% | viability, T/C (second compound 0.03 µM, first compound 0.1 µM): 110% | viability, T/C (second compound 0.0949 µM, first compound 0.000316 µM): 136% | viability, T/C (second compound 0.0949 µM, first compound 0.001 µM): 127% | viability, T/C (second compound 0.0949 µM, first compound 0.00316 µM): 136% | viability, T/C (second compound 0.0949 µM, first compound 0.01 µM): 124% | viability, T/C (second compound 0.0949 µM, first compound 0.0316 µM): 128% | viability, T/C (second compound 0.0949 µM, first compound 0.1 µM): 107% | viability, T/C (second compound 0.3 µM, first compound 0.000316 µM): 101% | viability, T/C (second compound 0.3 µM, first compound 0.001 µM): 82% | viability, T/C (second compound 0.3 µM, first compound 0.00316 µM): 99.6% | viability, T/C (second compound 0.3 µM, first compound 0.01 µM): 95.7% | viability, T/C (second compound 0.3 µM, first compound 0.0316 µM): 95.4% | viability, T/C (second compound 0.3 µM, first compound 0.1 µM): 129% | viability, T/C (second compound 0.949 µM, first compound 0.000316 µM): 97.5% | viability, T/C (second compound 0.949 µM, first compound 0.001 µM): 83.1% | viability, T/C (second compound 0.949 µM, first compound 0.00316 µM): 117% | viability, T/C (second compound 0.949 µM, first compound 0.01 µM): 89.1% | viability, T/C (second compound 0.949 µM, first compound 0.0316 µM): 89.9% | viability, T/C (second compound 0.949 µM, first compound 0.1 µM): 91% | viability, T/C (second compound 3 µM, first compound 0.000316 µM): 66.9% | viability, T/C (second compound 3 µM, first compound 0.001 µM): 86.8% | viability, T/C (second compound 3 µM, first compound 0.00316 µM): 74.4% | viability, T/C (second compound 3 µM, first compound 0.01 µM): 66.3% | viability, T/C (second compound 3 µM, first compound 0.0316 µM): 74.3% | viability, T/C (second compound 3 µM, first compound 0.1 µM): 89.2%

C=CC(=O)N1CCN(c2nc(=O)n(-c3c(C)ccnc3C(C)C)c3nc(-c4c(O)cccc4F)c(F)cc23)C(C)C1 (centres undefined)
viability, T/C (compound 0.0316 µM): 97.6% and 65.2% and 101% | viability, T/C (compound 0.1 µM): 87.3% and 70.7% and 109% | viability, T/C (compound 0.316 µM): 105% and 85.9% and 110% | viability, T/C (compound 1 µM): 87.3% and 95.3% and 117% | viability, T/C (compound 3.16 µM): 82.4% and 70.7% and 96.5% | viability, T/C (compound 10 µM): 93.6% and 72% and 104% | IC50 (curve of compound): > 10000 nM

COc1c(OCCCN2CCOCC2)ccc2c3n(c(=NC(=O)c4cnc(N)nc4)nc12)CCN3 + CNC(C)C(=O)NC1CN(S(=O)(=O)c2cccc(S(=O)(=O)N3CCC4CCC(C(=O)NC(c5ccccc5)c5ccccc5)N4C(=O)C(NC(=O)C(C)NC)C3)c2)CCC2CCC(C(=O)NC(c3ccccc3)c3ccccc3)N2C1=O
IC50 [1]: 320 nM | IC50 [2]: 162 nM | IC50 [3]: 156 nM | IC50 [4]: 132 nM | IC50 [5]: 237 nM | IC50 [6]: 259 nM | viability, T/C (second compound 0.00316 µM, first compound 0.00316 µM): 78.1% | viability, T/C (second compound 0.00316 µM, first compound 0.01 µM): 61% | viability, T/C [7]: 68.8% | viability, T/C [8]: 65.4% | viability, T/C [9]: 48.8% | viability, T/C [10]: 27.9% | viability, T/C (second compound 0.01 µM, first compound 0.00316 µM): 83.3% | viability, T/C (second compound 0.01 µM, first compound 0.01 µM): 89.9% | viability, T/C [11]: 85.4% | viability, T/C [12]: 53.9% | viability, T/C [13]: 53.1% | viability, T/C [14]: 34.4% | viability, T/C (second compound 0.0316 µM, first compound 0.00316 µM): 82.7% | viability, T/C (second compound 0.0316 µM, first compound 0.01 µM): 78.9% | viability, T/C [15]: 67% | viability, T/C [16]: 54.9% | viability, T/C [17]: 42.1% | viability, T/C [18]: 27.6% | viability, T/C (second compound 0.1 µM, first compound 0.00316 µM): 86.5% | viability, T/C (second compound 0.1 µM, first compound 0.01 µM): 68.2% | viability, T/C [19]: 56.9% | viability, T/C [20]: 62.5% | viability, T/C [21]: 37.1% | viability, T/C [22]: 39.1% | viability, T/C (second compound 0.316 µM, first compound 0.00316 µM): 72.5% | viability, T/C (second compound 0.316 µM, first compound 0.01 µM): 88.5% | viability, T/C [23]: 78.3% | viability, T/C [24]: 65.9% | viability, T/C [25]: 45.1% | viability, T/C [26]: 36.4% | viability, T/C (second compound 1 µM, first compound 0.00316 µM): 84.4% | viability, T/C (second compound 1 µM, first compound 0.01 µM): 64.9% | viability, T/C [27]: 83.7% | viability, T/C [28]: 48.3% | viability, T/C [29]: 53.6% | viability, T/C [30]: 32%

C=CC(=O)N1CCN(c2nc(=O)n(-c3c(C)ccnc3C(C)C)c3nc(-c4c(O)cccc4F)c(F)cc23)C(C)C1 (centres undefined) + CNC(C)C(=O)NC1CN(S(=O)(=O)c2cccc(S(=O)(=O)N3CCC4CCC(C(=O)NC(c5ccccc5)c5ccccc5)N4C(=O)C(NC(=O)C(C)NC)C3)c2)CCC2CCC(C(=O)NC(c3ccccc3)c3ccccc3)N2C1=O
IC50 [1]: > 10000 nM | IC50 [2]: > 10000 nM | IC50 [3]: > 10000 nM | IC50 [4]: > 10000 nM | IC50 [5]: > 10000 nM | IC50 [6]: > 10000 nM | viability, T/C [7]: 125% | viability, T/C [8]: 106% | viability, T/C [9]: 98.9% | viability, T/C [10]: 75.7% | viability, T/C (second compound 0.00316 µM, first compound 3.16 µM): 88.3% | viability, T/C (second compound 0.00316 µM, first compound 10 µM): 89.6% | viability, T/C [11]: 113% | viability, T/C [12]: 84% | viability, T/C [13]: 101% | viability, T/C [14]: 76.1% | viability, T/C (second compound 0.01 µM, first compound 3.16 µM): 85.8% | viability, T/C (second compound 0.01 µM, first compound 10 µM): 92.4% | viability, T/C [15]: 104% | viability, T/C [16]: 95.4% | viability, T/C [17]: 109% | viability, T/C [18]: 79.1% | viability, T/C (second compound 0.0316 µM, first compound 3.16 µM): 101% | viability, T/C (second compound 0.0316 µM, first compound 10 µM): 90.8% | viability, T/C [19]: 77.9% | viability, T/C [20]: 80% | viability, T/C [21]: 103% | viability, T/C [22]: 90.4% | viability, T/C (second compound 0.1 µM, first compound 3.16 µM): 77.9% | viability, T/C (second compound 0.1 µM, first compound 10 µM): 80.4% | viability, T/C [23]: 85.2% | viability, T/C [24]: 94.9% | viability, T/C [25]: 95.4% | viability, T/C [26]: 89.2% | viability, T/C (second compound 0.316 µM, first compound 3.16 µM): 90.5% | viability, T/C (second compound 0.316 µM, first compound 10 µM): 98.4% | viability, T/C [27]: 89.7% | viability, T/C [28]: 90.3% | viability, T/C [29]: 80.3% | viability, T/C [30]: 82% | viability, T/C (second compound 1 µM, first compound 3.16 µM): 91.1% | viability, T/C (second compound 1 µM, first compound 10 µM): 88%

COc1c(OCCCN2CCOCC2)ccc2c3n(c(=NC(=O)c4cnc(N)nc4)nc12)CCN3
viability, T/C (compound 0.00316 µM): 88.7% and 89.2% and 87.3% | viability, T/C (compound 0.01 µM): 106% and 82.6% and 84% | viability, T/C (compound 0.0316 µM): 91.1% and 79.6% and 45.8% | viability, T/C (compound 0.1 µM): 62.9% and 81.2% and 48.9% | viability, T/C (compound 0.316 µM): 50.7% and 65.9% and 55.2% | viability, T/C (compound 1 µM): 29.3% and 51.5% and 45.5%
